Measurements published in US20140350119A1, “OPHTHALMIC COMPOSITION COMPRISING GERANYLGERANYLACETONE” (ROHTO PHARMACEUTICAL CO., LTD., priority 2012, published 2014).

Tested on: rat models with glaucoma induced by NMDA
Test: Protective effect for retinal ganglion cells against nerve damage by NMDA (thickness of inner plexiform layer)
Assay type: in vivo, Sprague-Dawley (SD) rats
Excerpt: In recent years the glutamate analogue NMDA (N-methyl-D-aspartate) has been widely reported to be one of causative agents of neurodegenerative diseases including Alzheimer's disease. In the ophthalmic field, NMDA is considered to be involved in optic nerve damage in glaucoma (Brain Research Bulletin, 81 (2010) 349-358). Accordingly, in this experiment rat models with glaucoma induced by NMDA were used to evaluate the neuroprotective effect of GGA.
To Sprague-Dawley (SD) rats, the all-trans form, the 5Z-mono-cis form and teprenone were separately pre-administered by oral administration (Test Example 1), intravitreal administration (Test Example 2) or ocular instillation administration (Test Example 3) and 5 μL of NMDA was administered into the vitreous body to induce nerve damage. For Test Example 2, a marketed therapeutic eye drop for glaucoma, AIPHAGAN (trade name), was intravitreally administered as a positive control once a day for five days. For each of Test Examples, a base not containing GGA or AIPHAGAN was administered as a control in the same manner as described above.
The dosage and regimen of Test Examples 1 to 3 are shown in Table 1 and the constitution of the base used in each tests are shown in Table 2.
Three days after administration of NMDA, the eyeballs were harvested, fixed with half Karnovsky's fixative for 24 hours, embedded in paraffin, thin sectioned and stained with hematoxylin-eosin (HE) to prepare histopathological sections. The histological sections were observed under an optical microscope and the thickness (μm) of the inner plexiform layer (IPL) of the retina was measured. From the thickness of the inner plexiform layer (IPL) of the retina, the neuroprotective effects of the test preparations were evaluated.

SMILES: CC(=O)CC/C=C(\C)CC/C=C(\C)CC/C=C(\C)CCC=C(C)C [all-trans form, (5E,9E,13E)-6,10,14,18-tetramethyl-5,9,13,17-nonadecatetrae n-2-one]
- Neuroprotective effect against nerve damage by NMDA compared with the base (IPL thickness) (Test Example 1: oral, 800 mg/kg, 2 days, once per day, NMDA 4 mM, FIG. 6): significant neuroprotective effects
- Neuroprotective effect against nerve damage by NMDA compared with the base (IPL thickness) (Test Example 2: intravitreal, 0.05% w/v, 5 days, once per day, NMDA 40 mM, FIG. 7): significant neuroprotective effects
- Neuroprotective effect compared with AIPHAGAN Ophthalmic Solution 0.1% (Test Example 2: intravitreal, 0.05% w/v, 5 days, NMDA 40 mM, FIG. 7): significantly superior neuroprotective effect
- Neuroprotective effect against nerve damage by NMDA compared with the base (IPL thickness) (Test Example 3: ocular instillation, 1% w/v, 5 days, 5 times per day, NMDA 4 mM, FIG. 9): significant neuroprotective effect
